Assay results taken from patent publication US12023319B2, “Carboxylic acid aromatic amides” (priority 2016, dated 2024).

Columns and labels:
[1] = cited from earlier work
[2] = cited from earlier work; remark: listed apart in the source
[3] = cited from earlier work; remark: listed apart in the source
[4] = target: T1, human B1R (Homo sapiens, UniProt P46663); conditions: human B1R-expressing CHO cells; cited from earlier work
T1 construct: host or cells: CHO cells
T1 sequence (P46663 1-353): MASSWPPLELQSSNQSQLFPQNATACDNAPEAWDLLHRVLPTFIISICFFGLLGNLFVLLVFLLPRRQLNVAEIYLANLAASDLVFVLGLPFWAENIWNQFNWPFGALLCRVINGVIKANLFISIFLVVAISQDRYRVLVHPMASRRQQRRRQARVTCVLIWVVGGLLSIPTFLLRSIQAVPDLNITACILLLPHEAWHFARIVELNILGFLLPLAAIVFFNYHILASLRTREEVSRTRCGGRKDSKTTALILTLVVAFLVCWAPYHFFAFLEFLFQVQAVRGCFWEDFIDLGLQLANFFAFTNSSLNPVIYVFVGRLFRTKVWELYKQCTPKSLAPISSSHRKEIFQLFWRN

[5] = target: T2, human Bradykinin B1 receptor (Homo sapiens, UniProt P46663); experiment: Calcium flux assay (FLIPR), CHO-K1 cells expressing human Bradykinin B1 receptor, absence of 0.1% BSA (hB1 free IC50); type: cell-based; conditions: absence of 0.1% BSA in assay buffer
T2 construct: host or cells: CHO-K1
T2 sequence (P46663 1-353): T1 sequence (P46663 1-353)
Summary of the method: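 Peak FLIPR fluorescence (538 nm) after B1 agonist peptide addition gave IC50s, scaled between DMSO and full block by 20 µM Lys-(Des-Arg-Leu)-Bradykinin. Compounds were preincubated 30 min at 28° C with calcium-dye-loaded CHO-K1 cells expressing human B1, at 8 concentrations in triplicate, 1% DMSO final.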

[6] = target: T3, native human Bradykinin B1 receptor (Homo sapiens, UniProt P46663); experiment: Calcium flux assay (FLIPR) with IMR-90 human fibroblasts expressing Bradykinin B1 receptor after IL-1beta induction (hB1 IMR-90); type: cell-based; conditions: IMR-90 human fibroblasts after IL-1beta induction, read-out: hB1 IMR90 IC50
T3 construct: which express native human Bradykinin B1 receptor after induction with human IL-1beta; Coriell Institute; host or cells: IMR-90 human foetal lung fibroblasts, induced with human IL-1beta
T3 sequence (P46663 1-353): T1 sequence (P46663 1-353)
Procedure: Calcium Flux Assay (FLIPR) with Human Fibroblasts Expressing Bradykinin B1 Receptor (hB1 IMR-90)
The Calcium flux Assay was carried out utilising IMR-90 human foetal lung fibroblasts (American Type Culture Collection, Rockville, MD; and Coriell Institute, Camden, New Jersey), which express native human Bradykinin B1 receptor after induction with human IL-1beta.
The fibroblasts were cultured in complete growth media comprised of Dulbecco's modified Eagle's medium (DMEM; Sigma) containing 10% foetal bovine serum, 4 mM L-glutamine, and 1% nonessential amino acids. The cells were maintained in a humidified atmosphere with 5% CO2 at 37° C. and were sub-cultured at a ratio of 1:3, every other day.
For the assay, IMR-90 fibroblasts were harvested using TrypLE Express (GIBCO/Invitrogen) and seeded into 384-well plates (Corning Cellbinding Surface, Cat. 3683) at a density of 15000 cells/well. The following day, cells were treated with 0.35 ng/mL human IL-1beta in 10% FBS/MEM for 3 h to up-regulate Bradykinin B1 receptor. Induced cells were loaded with fluorescent calcium indicator by incubation with 2.5 μM Fluo-4/AM (Invitrogen) at 37° C., 5% CO2 for 2 h in the presence of 2.5 mM probenecid in 1% FBS/MEM. […] Compound examples were assayed at 8 concentrations in triplicate. […] A peptide antagonist Lys-(Des-Arg-Leu)-Bradykinin (Bachem, Brackley) at 20 µM was used to determine the full inhibition as control. IC50 values were determined by the same way described for the FLI PR assay with recombinant cells.

[7] = system: Male Sprague Dawley rats; experiment: Rat CFA in vivo model (mechanical hyperalgesia, paw withdrawal threshold); conditions: for Paw withdrawal threshold 2 hours post-compound: 2 hours post-compound (Table 5)
Procedure: Male Sprague Dawley rats were used. Mechanical hyperalgesia was induced by injecting 25 μL of Complete Freund's Adjuvant (CFA) into the plantar surface of one hind paw. Mechanical hyperalgesia was measured using the Pressure Application Measurement apparatus (Ugo Basile, Gemonio, Italy). Briefly, a linearly increasing pressure was applied to an area of ˜50 mm^2 of the plantar side of the hind paw until a behavioural response (paw withdrawal) was observed or until the pressure reached 1000 gf. The pressure at which the behavioural response occurred was recorded as the “Paw Withdrawal Threshold” (PWT). Both CFA-injected and contralateral PWTs were determined for each rat, in each treatment group and at each time point of the studies. The Compound Examples were administered orally in a vehicle of dimethylsulfoxide (DMSO), Polyethylenglycol (PEG) and 2-hydroxypropyl-beta-cyclodextrin (HPCD) (v/v/v=3:20:77). Rats received a first dose of […] of Compound Example per kg body weight 1 hour before CFA injection and a second dose 24 hours after the CFA injection. Mechanical hyperalgesia testing was performed approximately 2 hours before CFA injection, then 2 and 4 hours after the second dose of Compound Example (i.e. 26 and 28 hours after CFA treatment). Data were expressed as the mean±S.D. Area Under the Curve (AUC) of PWTs (defined in table 3 as “AUC of Paw withdrawal threshold (AUC 0-4 hours) post-vehicle” with respect to vehicle group or “AUC of Paw withdrawal threshold (AUC 0-4 hours) post-drug” with respect to Compound Example). Data were analysed by performing a one-way ANOVA followed by a Dunnett's post hoc test. For p values less than 0.05 the results were deemed to be statistically significant.

[8] = due to metabolic lability; cited from earlier work

Question: Which results are given for C[C@@H]1CC[C@H](C)N1C(=O)c1ccc([C@@H](C)NC(=O)C2(NC(=O)c3cc(F)cc(C(F)(F)F)c3)CC2)c(F)c1?
Answer: aqueous solubility [1]: reasonable; pharmacokinetic profile in rat [2]: reasonable; human metabolic stability [3]: poor

Question: For COC(=O)c1c(Cl)cccc1N1CCC(CNC(=O)C2(NC(=O)C(F)(F)F)CC2)CC1, which binding affinity [4] is on record?
Answer: The binding affinity was “highest”.

Question: Which IC50 [5] does the source give for O=C(O)c1cc(NC(=O)C2(c3ccc(OC(F)(F)F)cc3F)CC2)cc(F)c1-c1cnn(C2CCC2)c1 [Example 43, 2-(1-Cyclobutyl-1H-pyrazol-4-yl)-3-fluoro-5-[({1-[2-fluoro-4-(trifluoromethoxy)phenyl]cyclopropyl}carbonyl)amino]benzoic acid] here?
Answer: Its IC50 is 7 nM.

Question: What about the IC50 [6] of the same compound?
Answer: Its IC50 is 2.8 nM.

Question: And the “Paw withdrawal threshold 4 hours post-compound” value ([7]; 0.75 mg/kg p.o.)?
Answer: The value was 599 ± 28 gf (ns).

Question: What about the “Paw withdrawal threshold 4 hours post-compound” value ([7]; 3 mg/kg p.o.) of the same compound?
Answer: Its value is 610 ± 21 gf (ns).

Question: What about the “Paw withdrawal threshold 4 hours post-compound” value ([7]; 15 mg/kg p.o.) of the same compound?
Answer: The value was 709 ± 18 gf (****).

Question: For CC(C)n1cc(-c2ccc(NC(=O)C3(c4ccc(OC(F)(F)F)cc4F)CC3)cc2C(=O)O)cn1 [Example 71, 5-[({1-[2-Fluoro-4-(trifluoromethoxy)phenyl]cyclopropyl}carbonyl)amino]-2-[1-(propan-2-yl)-1H-pyrazol-4-yl]benzoic acid], which IC50 [5] is on record?
Answer: Its IC50 is 47 nM.

Question: And the IC50 [6]?
Answer: The IC50 was 28 nM.

Question: What about the “Paw withdrawal threshold 2 hours post-compound” value ([7]; 0.75 mg/kg p.o.) of the same compound?
Answer: Its value is 591 ± 20 gf (ns).

Question: What about the “Paw withdrawal threshold 2 hours post-compound” value ([7]; 3 mg/kg p.o.) of the same compound?
Answer: The value was 628 ± 17 gf (ns).

Question: What about the “Paw withdrawal threshold 2 hours post-compound” value ([7]; 10 mg/kg p.o.) of the same compound?
Answer: Its value is 742 ± 49 gf (****).

Question: With C[C@@H](NC(=O)C1(NC(=O)C(F)(F)F)CC1)c1ccc(-c2cccc(Cl)c2C(=O)O)cc1F [MK-0686] as the compound, how does the pharmacokinetic profile [8] read?
Answer: Its pharmacokinetic profile is “suboptimal”.
